Several values for one entry are separate records, joined by “and”; a condition that tells them apart may be missing. Identical values can stand only once.
System: patients with treatment-resistant OCD
Experiment: Ondansetron augmentation of SRI plus antipsychotic therapy, single-blind 12-week study (YBOCS, CGI, MADRS)
Format: in vivo, human
Text: Between March 2008 and November 2008, fourteen adults aged 18 to 55 were enrolled in a study at the Institute for Neuroscience, Florence, Italy. […] All diagnoses were established utilizing a structured interview, the Structured Clinical Interview for DSM IV Axis I Disorders (SCID I). (See Spitzer, R. L. et al. ARCH GEN PSYCHIATRY 49(8):624-649) Potential subjects with a history of alcohol or substance abuse, current severe depressive symptoms, bipolar disorder, panic disorder, schizophrenia, other psychiatric conditions, heart disease, arrhythmia, liver problems (including cirrhosis), seizures, glaucoma or serious medical disease were excluded. Patients with hoarding as their only OCD symptom and women of childbearing potential not using a medically acceptable contraceptive method were also excluded. After being fully informed about the study and signing an informed consent approved by the Internal Institutional Review Board, subjects were administered an ondansetron hydrochloride (oral solution) dosage of 0.25 mg twice a day for 6 weeks, followed by 0.5 mg twice a day for 6 weeks for a total observation period of 12 weeks. […] The Y-BOCS, Montgomery-Asberg Depression Rating Scale (MADRS) (see Montgomery, S. A., BR J PSYCHIATRY 1979; 134:382-389) was administered at screening and baseline, and these assessments were repeated at every follow-up visit at 2-week intervals, along with the Clinical Global Impressions-Improvement (CGI-I) rating (see Guy, W. ECDEU Assessment Manual for Psychopharmacology. US Dept Health, Education, and Welfare publication (ADM) 76-338. Rockville, Md.: National Institute of Mental Health; 1976:218-222) and an unpublished Drug Effect scale. The Drug Effect scale asked subjects to rate “How anxious are you now?” on a scale of zero (not at all) to 10 (“the most anxious I have ever been”). Similar rating questions have been “Do you experience appearance or increment in frequency of headaches?”, “Do you experience appearance or increment in frequency of headaches fatigue?” and “Do you experience appearance or increment in frequency of headaches constipation” and so on regarding other common ondansetron side effects (diarrhea, urinary retention, itching, and dizziness). Furthermore, each evening during the first week of study medication, a study psychiatrist called the subject to ask for major or unexpected collateral effects (as chest pain, an unexplained skin rash, or tremors.). […] (See […]. et al., AM J PSYCHIATRY 1997; 154:320-321) Subjects with MADRS scores ≧18 were excluded. Ratings were administered by an investigator who was blind to the treatment condition of the patients. Given the small sample size, mean changes from baseline in rating scales were tested with a non-parametric method based on ranks (Wilcoxon signed rank test), using a two-tailed significance level of p≦0.05. Relationships among rated and demographical variables were tested with Spearman's rank correlation tests, using a two-tailed significance level of p≦0.05. Age, baseline OCD severity, and depressive symptoms were controlled for by stratifying through the Mantel-Haenszel χ2 test. Body mass index (BMI) was adjusted given the differences of ondansetron bioavailability according to BMI.

[1] = End of 6th week, Non responder (n = 5)
[2] = End of 6th week, Responder (n = 9)
[3] = End of 12th week, Non responder (n = 5)
[4] = End of 12th week, Responder (n = 9)
[5] = from baseline, individual patients 1-14

In the case of `Cc1nccn1CC1CCc2c(c3ccccc3n2C)C1=O` (centres unmarked) [ondansetron], the “YBOCS Score” value (6 weeks, individual patients 1-14) is reported as 25 (3×) and 28 and 17 (2×) and 16 and 27 and 26 and 24 (3×) and 19 and 21, the “average YBOCS score decrease of the whole group” value (6 weeks, n=14) is reported as 16% and the “patients reaching YBOCS criteria for treatment response (decrease of ≧25%)” value (12th week, 9/14) is reported as 64.2%. The “patients very much improved or much improved (CGI-I 1 or 2)” value (12th week, of 14) was “seven”, the “YBOCS Score” value (12 weeks, individual patients 1-14) was 25 (3×) and 15 (2×) and 14 and 30 and 23 and 22 (2×) and 24 and 18 and 17 and 20 and the “average YBOCS score decrease of the whole group” value (12 weeks, n=14) was 23%. For the same compound, the “patients with greater than 25% improvement in OCD symptoms” value (12 weeks, n=14) was “Sixty-four”, the “CGI (mean)” value [1] was 4.6 and the “MADRS (mean)” value [1] was 8.0. For the same compound, the “CGI (mean)” value [2] was 3.4, the “MADRS (mean)” value [2] was 6.7 and the “CGI (mean)” value [3] was 4.8. The “MADRS (mean)” value [3] was 7.6, the “YBOCS (mean)” value [3] was 21.4 and the “CGI (mean)” value [4] was 2.3. The “MADRS (mean)” value [4] was 6.8, the YBOCS score decrease (Patient 11 (citalopram 60 mg/day and risperidone 2 mg/day), 12th week) was no less than 35% and the “Mean MADRS scores change from baseline” value (baseline to the end of week 1) was “did not change significantly”. For the same compound, the “YBOCS Percent Reduction at 6 weeks” value [5] was 20.00% (2×) and 15.00% and .00%, the “YBOCS Percent Reduction at 12 weeks” value [5] was 28.57% and 25.00% (2×) and 30.00% and the “patients with significant improvement in OCD symptoms” value (out of 14, within 12 weeks of treatment) was 9. For the same compound, the “Clinical Global Impressions-Improvement (CGI-I) scores” value (through week 12) was “improved concurrent with improvement in the YBOCS scores” and the “outcome after discontinuation of the ondansetron” value (two responder patients) was “experienced worsening”.

Source: patent publication US20120302616A1, “METHOD OF TREATMENT OF OBSESSIVE COMPULSIVE DISORDER WITH ONDANSETRON” (priority 2010, published 2012)
